Experiments:
SHP mRNA = SHP mRNA expression in HepG2 cells (RT-PCR); assay type: cell-based, human
Procedure: RNA isolation and RT-PCR. HepG2 cells were plated at the density of 1×10^6 cells/flask in T25 flask. […] Total RNA was isolated from HepG2 cells or liver tissue using the TRIzol reagent according to the manufacturer's specifications (Invitrogen). One microgram of purified RNA was treated with DNase-I and reverse transcribed with QuantiTect Reverse Transcription Kit (Qiagen). For Real Time PCR, 10 ng template was dissolved in 25 μL containing 200 nmol/L of each primer and 12.5 μL of 2×SYBR FAST Universal ready mix (Invitrogen). All reactions were performed in triplicate, and the thermal cycling conditions were as follows: 2 min at 95° C., followed by 40 cycles of 95° C. for 20 s and 60° C. for 30 s in StepOnePlus (Applied Biosystems). The relative mRNA expression was calculated in accord to the Ct method. Forward and reverse primer sequences were the following: human GAPDH: [NT] (SEQ ID: 1) and [NT] (SEQ ID: 2); human SHP: [NT] (SEQ ID: 3) and [NT] (SEQ ID: 4); mouse GAPDH, [NT] (SEQ ID: 5) and [NT] (SEQ ID: 6); mouse SHP [NT] (SEQ ID: 7) and [NT] (SEQ ID: 8); mouse FXR: [NT] (SEQ ID: 9) and [NT] (SEQ ID: 10); mouse BSEP: [NT] (SEQ ID: 11) and [NT] (SEQ ID: 12).

liver BSEP mRNA = experiment: Liver BSEP mRNA expression in mice after administration of compound; assay type: in vivo, mouse; settings: administered per os, 10 mg/kg daily for 3 days
Procedure: (§1) Total RNA was isolated from HepG2 cells or liver tissue using the TRIzol reagent according to the manufacturer's specifications (Invitrogen). One microgram of purified RNA was treated with DNase-I and reverse transcribed with QuantiTect Reverse Transcription Kit (Qiagen). For Real Time PCR, 10 ng template was dissolved in 25 μL containing 200 nmol/L of each primer and 12.5 μL of 2×SYBR FAST Universal ready mix (Invitrogen). All reactions were performed in triplicate, and the thermal cycling conditions were as follows: 2 min at 95° C., followed by 40 cycles of 95° C. for 20 s and 60° C. for 30 s in StepOnePlus (Applied Biosystems). The relative mRNA expression was calculated in accord to the Ct method. Forward and reverse primer sequences were the following: human GAPDH: [NT] (SEQ ID: 1) and [NT] (SEQ ID: 2); human SHP: [NT] (SEQ ID: 3) and [NT] (SEQ ID: 4); mouse GAPDH, [NT] (SEQ ID: 5) and [NT] (SEQ ID: 6); mouse SHP [NT] (SEQ ID: 7) and [NT] (SEQ ID: 8); mouse FXR: [NT] (SEQ ID: 9) and [NT] (SEQ ID: 10); mouse BSEP: [NT] (SEQ ID: 11) and [NT] (SEQ ID: 12). C57BL/6N male mice were from The Jackson's Laboratory. […] The general health of the animals was monitored daily by the Veterinarian in the animal facility. […]

liver SHP mRNA = experiment: Liver SHP mRNA expression in mice after administration of compound; assay type: in vivo, mouse; settings: administered per os, 10 mg/kg daily for 3 days
Procedure: as §1

[1] = rats, oral administration; cited from earlier work
[2] = ascribed to the stilbene moiety; cited from earlier work
[3] = Microsomal stability in mouse liver microsomes; assay type: in vitro ADME; settings: male CD-1 mouse liver microsomes, 1 μM compound, 37° C.
Procedure: Male mouse (CD-1) liver microsomes (Sigma-Aldrich) were used. All incubations were performed in duplicate in a shaking water bath at 37° C. […] Aliquots were removed at 0, 5, 10, 20, 30, and 40 min after microsome addition and the reaction was stopped by adding 200 μL of ice-cold acetonitrile. After 2 h, the samples were centrifuged for 10 min at 10000 rpm, and the supernatants were transferred in matrix tubes for LC-MS/MS analysis. Propranolol, known as a high hepatic clearance drug in rodents, was used as a quality-control compound for the microsomal incubations. The slope of the linear regression of the curve obtained reporting the natural logarithm of compound area versus incubation time (−k) was used in the conversion to in vitro t1/2 values by t1/2=−ln(2)/k. In vitro intrinsic clearance (CLint expressed as μL/min/mg) was calculated according to the following formula: Clint=volume of reaction (μL)/t1/2 (min)/protein of liver microsomes (mg).

For `CC(C)c1onc(-c2c(Cl)cccc2Cl)c1COc1ccc(COc2ccc(C(=O)O)cc2)cc1` [BAR2109, 4-((4-((3-(2,6-dichlorophenyl)-5-isopropylisoxazol-4-yl)methoxy)benzyl)oxy)benzoic Acid], the “SHP mRNA expression induction” value (SHP mRNA; 5 μM concentration, 18 h) was 6.8 times, the “liver BSEP mRNA expression” value (liver BSEP mRNA) was “inducing” and the “liver SHP mRNA expression” value (liver SHP mRNA) was “inducing”.

With `CC(C)c1onc(-c2c(Cl)cccc2Cl)c1COc1ccc(COc2cccc(C(=O)O)c2)cc1` [BAR2123, 3-((4-((3-(2,6-dichlorophenyl)-5-isopropylisoxazol-4-yl)methoxy)benzyl)oxy)benzoic Acid] the “SHP mRNA expression induction” value (SHP mRNA; 5 μM concentration, 18 h) was 6.2 times.

In the case of `CC(C)c1onc(-c2c(Cl)cccc2Cl)c1COc1ccc(/C=C/c2cccc(C(=O)O)c2)c(Cl)c1` [GW4064], the “SHP mRNA expression induction” value (SHP mRNA; reference compound at 10 μM concentration) is given as 4.2 times, the intestinal absorption [1] is given as under 10% and the terminal half-life [1] is given as “short”. For the same compound, the UV light stability [2] was “UV light instability”, the Clint [3] was 56 µL/min/mg and the “t1/2” value [3] was 41 min.

— patent US11332450B2, “Isoxazole as FXR receptor agonists” (Bar Pharmaceuticals Societa' A Responsabilita' Limitata, priority 2018, dated 2022)
